Laboratory results taken from publication PMC12559910, “A New N6‐Methyladenosine Inhibitor, Celastrol, Alleviates Rheumatoid Arthritis via Targeting IGF2BP3” (MedComm, 2025).
pKd: −log10 of the molar value.

Molecular target: T1, recombinant IGF2BP3 protein (Homo sapiens, UniProt O00425)
T1 construct: recombinant, amine-coupled to CM5 chip
Assay: SPR (Biacore T200, CM5 chip, steady-state fit)
Format: binding

T1 sequence (O00425 whole entry): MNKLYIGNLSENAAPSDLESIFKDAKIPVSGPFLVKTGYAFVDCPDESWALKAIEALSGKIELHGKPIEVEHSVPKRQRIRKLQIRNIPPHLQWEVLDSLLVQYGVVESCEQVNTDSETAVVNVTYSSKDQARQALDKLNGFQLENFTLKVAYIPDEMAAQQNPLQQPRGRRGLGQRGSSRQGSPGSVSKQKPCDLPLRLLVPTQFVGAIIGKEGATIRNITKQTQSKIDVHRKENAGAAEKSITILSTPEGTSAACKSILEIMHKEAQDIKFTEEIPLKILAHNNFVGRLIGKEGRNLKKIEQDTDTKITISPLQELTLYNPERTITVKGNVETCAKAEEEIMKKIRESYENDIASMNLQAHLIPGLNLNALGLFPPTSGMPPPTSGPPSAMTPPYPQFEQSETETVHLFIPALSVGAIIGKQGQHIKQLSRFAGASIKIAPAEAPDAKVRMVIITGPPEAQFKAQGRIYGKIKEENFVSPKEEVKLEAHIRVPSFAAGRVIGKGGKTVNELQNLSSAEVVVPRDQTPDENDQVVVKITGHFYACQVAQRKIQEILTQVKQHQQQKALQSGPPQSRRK

CC1=C(O)C(=O)C=C2C1=CC=C1[C@@]2(C)CC[C@@]2(C)[C@@H]3C[C@](C)(C(=O)O)CC[C@]3(C)CC[C@]12C [celastrol]
pKd: 5.78
